Measured values reported in US20140056811A1, “NEW CELL-PENETRATING PEPTIDES AND USES THEREOF” (COMPUGEN LTD., priority 2010, published 2014).
Entries after “also recorded” stand apart in the source; their conditions may differ. Peptide text beside a SMILES is read from it. * marks the point of attachment. 5FAM = O=C1OC2(c3ccc(O)cc3Oc3cc(O)ccc32)c2ccc(C(=O)*)cc21; FAM = carboxyfluorescein

Key:
Type in all cases: cell-based
NRK cell line = assay: Internalization assay of CPP conjugated liposomes by confocal microscopy; details: CPP conjugated to liposomes, 50 μl, 1 hour, 37° C.
Experimental: (§1) Internalization assay was performed in 24 well plates. A549 or NRK cells were seeded on cover slips in RPMI or DMEM medium respectively, supplemented with antibiotics, L-Glutamine and 10% fetal calf serum (Biological industries, Beit Haemek).
(§2) For membrane staining, cells were stained with CellTracker™ DilC18 (5)-DS solution (Invitrogen, Carlsbad, Calif., USA), diluted 1:5000 with PBS. For internalization experiments involve NPs Concanavalin A, Alexa fluor 647 conjugate (10 μg/ml) (C21421, Invitrogen,) was used to label cell membrane. For nuclei staining, cells were stained with Hoechst (1:10,000 in PBS) (33258, Sigma). Cells were exposed to CPPs only (10 μM) or CPP-liposome complex (50 μl from stock, according to preparation method) or liposome only (50 μl from the prepared liposomal stock solution) in medium without serum for a period of 1 hour at 37° C. in a humidified atmosphere with 5% CO2. Subsequently, the cells were washed twice using cold PBS, fixated with 4% Paraformaldehyde (PFA) and washed again with cold PBS. Membrane and nuclei staining were preformed after fixation. The cells were mounted by fluorescent mounting medium (Golden Bridge international, Mukilteo, Wash., USA) and fluorescent was measured using Andor Spinning disc confocal microscope and the Meta 510 Zeiss LSM confocal microscope. Laser beams at 405, 488, 561 and 650 nm were used for UV, FAM, Rhodamine, Concavaline A and CellTracker™, fluorophores excitation respectively. Serial optical sections of the cells were recorded for each treatment and the images were processed using Zeiss LSM Image browser software.

A549 cell line = assay: as above; details: CPP conjugated to liposomes, 50 μl, 1 hour, 37° C.
Experimental: as §1, §2

A549 cells = assay: FACS binding analysis of CPP conjugated liposomes; details: FAM-CPP conjugated to hyaluronan coated liposomes, 30 minutes on ice
Experimental: Liposome preparation was carried out as described in Peer D., at al., 2008, Science 319, 627-630, Briefly, liposomes (60% soy-pc, 20% DPPE 20% cholesterol mol/mol) were prepared at a concentration of 40 mg/ml (Soy PC-273 mg, DPPE-81.2 mg Cholesterol-145.4 mg in 10 ml of ethanol). After a complete dissolvent, the solution was evaporated in a rotary evaporator (BUCHI R-210). Following the evaporation the dry lipid film was hydrated in 10 ml of HEPES (PH 7.4) and the solution was shaken (2 hr 65° C.). The MLV were reduced to ULV with an average size of ˜150 nm (Zetasizer Nano ZS system) by passing them through an extruder (Lipex) using filtration membranes in a serially manner ([…]). Average zeta potential of the ULV was −3 mV (Zetasizer Nano ZS system).
Hyaluronan (HA) (700 KDa Lifecore) was dissolved in 0.2M MES buffer (PH 5.5) to a final concentration of 5 mg/ml. HA was activate with EDC and solfo-NHS at a molar ratio of 1:1:6. After 30 min of activation the liposomes were added and the pH was adjusted to 7.4. The solution was incubated at room temp (2 hr). The free HA was removed by 3 repeated ultracentrifugations. The resulting HA-ULV's were at an average of 175 nm in size.
CPPs S22 (SEQ ID NO: 1), S24 (SEQ ID NO: 2) and S8 (SEQ ID NO: 6) and Control CPPs; 9R with additional C-terminal Lysine, 9R-K (SEQ ID NO: 40) and N2 (SEQ ID NO: 22), were dissolved to a concentration of 1 mg/ml. HA-ULV's (250 μl of 40 mg/ml) were activated with 1 ml of 0.4M EDC and 1 ml of 0.4 mM solfo-NHS. After 30 min the activated liposomes were divided into 5 test tubes (250 μl per each tube) and a different CPP (50 μl) was added. After incubation at RT for 2 hr, the CPP-HA-ULVS were dialyzed over night with PBS buffer (0.5 L/3 buffer changeovers) to remove unbound CPP, using dialysis bags with a cutoff 3500 Da.
For binding analysis, 3.5×10^5 cells were trypsinized, spin down, re-suspended with FACS buffer (1% fetal bovine serum in 1×PBS), incubated for 30 minutes on ice with different CPPs (Conjugated to FAM fluorophore) and washed with 1 ml FACS buffer.

HeLa cells [1] = assay: Flow cytometry (FACS) quantification of cellular uptake of FAM labeled peptides; details: FAM labeled peptide, 10 uM, 37° C., 1 hour, average of a number of experiments
Experimental: To determine the efficiency of peptide loading, HeLa cells (ATCC number CCL-2TM (Manassas, Va.) grown in DMEM medium with stabilized glutamine supplemented with 10% fetal calf serum (Biological Industries, Beit Haemek, Israel), were seeded at a density of 20,000 per well in 96 U shape-well plates (Nunc A/S, Roskilde, Denmark) in serum containing DMEM (D-Mem W/O Na Pyr, product number 41965039).
After 24 hours, the cells were washed twice with 300 μL serum free OptiMEM (Reduced Serum Media, buffered with HEPES and sodium bicarbonate and supplemented with hypoxanthine, thymidine, sodium pyruvate, L-glutamine, trace elements and growth factors) medium and incubated in 50 μL serum free OptiMEM, containing peptides in the appropriate concentrations for 1 hour at 37° C. Each condition was tested in triplicates. After incubation, cells were washed with serum free medium, detached by trypsinization for 5 minutes, suspended in ice-cold PBS (phosphate buffered saline) containing 0.1% (w/v) BSA (bovine serum albumin), and measured immediately by flow cytometry (BD FACS Calibur System, Becton Dickinson, Heidelberg, Germany). The fluorescence of approximately 10,000 vital cells was acquired and gated based on sideward and forward scatter. Peptides used as positive controls were Tat(47-57) (SEQ ID NO:19; Jain M, et al., Cancer Res. 2005 Sep. 1; 65(17):7840-6), 9R (SEQ ID NO:21; Mueller J, et al., Bioconjug Chem. 2008 December; 19(12):2363-74) and penetratin (SEQ ID NO:20; Mueller J, et al., Bioconjug Chem. 2008 December; 19(12):2363-74). Negative control peptides N2 (SEQ ID NO:22) and N5 (SEQ ID NO:23) were designed according to Handbook [Cell-Penetrating Peptides, Second Edition, Edited by Ülo Langel, CRC Press 2007, Print ISBN: 978-0-8493-5090-0] and [US Patent Application 20080234183].

[2] = In vitro cytotoxicity by LDH (lactate dehydrogenase) analysis; details: human
Experimental: In order to assess the in vitro cytotoxicity of the peptides, an LDH (lactate dehydrogenase) analysis was carried out, using LDH kit (Promega G1782), according to manufacturer instructions.
Briefly, HeLa cells from 5 ml of confluent T75 flask were seed in 96 well plate at 10×10^4 cells/mL in 0.1 ml DMEM supplied with 10% Fetal Calf Serum. After 24 hrs incubation with growth medium, wells were replaced with Serum Free growth medium for 24 hrs, and then cells were washed with OptiMEM and replaced with 0.1 ml peptide solution at 10 uM for 1 h at 37° C. 50 ul of supernatant were transferred to the new plate and detected according to Cyto Tox 96, Non Radioactive cytotoxicity assay, (LDH kit Promega G1782). Table 5 presents the results of in vitro cytotoxicity measurements by LDH for S22, S24, S36 and S40 peptides and two positive control peptides; Tat(47-57) and R9. LDH experiment was done with fluorescent labeled (5-FAM) peptides in concentration of […] and the % of cytotoxicity was measured by LDH levels.

HeLa cells [3] = assay: Confocal microscopy of peptide membrane penetration and cellular distribution; details: 5 uM, 37° C.
Experimental: To determine qualitative validation of peptide membrane penetration, HeLa cells from 5 ml of confluent T75 flask were seed in 12 well plate at 10×10^4 cells/mL in 0.5 ml DMEM supplied with 10% Fetal Calf Serum. […] DiD (DiD-[1,1′-Dioctadecyl-3,3,3′,3′-tetramethylindodicarbocyanine iodide] Lipophilic membrane tracer) (5 ug/ml) was added to each well and incubated for 5 min at 4° C., washed twice with cold PBS and fixed with 3.7% PFA 20′ RT. Cells were rinsed with PBS and mounted on slides for confocal microscopy analysis.

Compound	internalization into NRK cell line (confocal) (NRK cell line)	internalization into A549 cell line (confocal) (A549 cell line)	binding to A549 cells (FACS) (A549 cells)	Geometric mean of FL1 intensity (HeLa cells [1])	cytotoxicity at 1 h, 10 µM [2] [%]	accumulation of FAM labeled peptide inside the cell (confocal images) (HeLa cells [3])
CC[C@H](C)[C@H](NC(=O)[C@H](CCCNC(=N)N)NC(=O)[C@H](CCCNC(=N)N)NC(=O)[C@H](CS)NC(=O)[C@@H](NC(=O)[C@H](CCCCN)NC(=O)[C@H](CCCCN)NC(=O)c1ccc2c(c1)C(=O)OC21c2ccc(O)cc2Oc2cc(O)ccc21)[C@@H](C)O)C(=O)N[C@@H](CC(N)=O)C(=O)N[C@@H](Cc1ccc(O)cc1)C(=O)N[C@@H](CS)C(=O)N[C@@H](C)C(=O)N[C@@H](CC(C)C)C(=O)N[C@@H](CC(N)=O)C(=O)N[C@@H](CCCCN)C(N)=O [S22, KKTCRRINYCALNK] (5FAM-KKTCRRINYCALNK-NH2; N-terminus and C-terminus assumed)	weak internalization; also recorded: better penetration into NRK in a comparison with peptide only	significant internalization effect	high binding levels	206.4275	7	strong cell membrane penetration capability; also recorded: efficient cellular uptake and intracellular accumulation
KKLALYLLLAL ({FAM}-KKLALYLLLAL-NH2) [S67]				27.9		
KPSARMLLLKGFGK [S8]	weak internalization		lower binding effect	52.29		
RRRRRRRRRK [9R-K, positive control, 9R with additional C-terminal Lysine, reference compound]			high binding levels			
VATIKSVSFYTRK [N2, negative control peptide, reference compound]		did not show internalization effect	lower binding effect			
